Results published in patent publication US10561638B2, “Methods for treating dependence” (Biotie Therapies, Inc., priority 2007, dated 2020).
Entries after “also recorded” stand apart in the source; their conditions may differ.

Tested on: tissue noradrenaline and dopamine content
Test: Tissue catecholamines in SHRs after three oral doses 12 h apart
Format: in vivo, spontaneously hypertensive rats
Conditions: for increase in DA/NE ratio / nepicastat compared with SKF-102698, catecholamine changes: 30 mg/kg; for maximal increase in DA/NE ratio: 100 mg/kg; for decrease in noradrenaline / increase in dopamine: 100 mg/kg po x3
Protocol: Male SHRs (15-16 weeks old, Charles River, Wilmington, Mass., USA) were used in in vivo studies. On the day of the study, animals were weighed and randomly assigned to be dosed with either vehicle (control) or the appropriate dose of nepicastat (3, 10, 30 or 100 mg·kg^−1, po) or Compound B (30 mg·kg^−1, po) three consecutive times, twelve hours apart. At six hours after the third dose, the rats were anaesthetized with halothane, decapitated and tissues (cerebral cortex, mesenteric artery and left ventricle) were rapidly harvested, weighed, placed in iced perchloric acid (0.4 M), frozen in liquid nitrogen and stored at −70° C. until subsequent analysis. To quantify noradrenaline and dopamine concentrations, tissues were homogenized by brief sonication and centrifuged at 13,000 rpm for 30 minutes at 4° C. The supernatant, spiked with 3,4-dihydroxybenzylamine (internal standard), was assayed for noradrenaline and dopamine by HPLC using electrochemical detection.
Nepicastat was used in in vivo biochemical studies to study the effects in spontaneously hypertensive rats (SHRs) and normal beagle dogs. On the day of the study, the animals were weighed and randomly assigned to receive either placebo (vehicle) or the appropriate dose of nepicastat. Each rat was dosed orally three times, 12 h apart, beginning in the morning. At 6 h after the third dose, the rats were anesthetized with halothane, decapitated, and the tissues (cerebral cortex, mesenteric artery and left ventricle) were rapidly harvested, weighed, placed in iced 0.4 M perchloric acid, frozen in liquid nitrogen and stored at −70° C. until analysis. Tissue NE and DA concentrations were assayed by HPLC using electrochemical detection. Male beagle dogs (10-16 kg, Marshall Farms USA Inc, North Rose, N.Y.) were used in the study. On the day of the study, dogs were randomly assigned to receive either placebo (empty capsule) or the appropriate dose of nepicastat. Each dog was dosed twice a day for 4.5 days. 6 h after the first dose on day 5, the dogs were euthanized with pentobarbital and the tissues (cerebral cortex. renal artery, left ventricle) harvested, weighed, placed in iced 0.4 M perchloric acid, frozen in liquid nitrogen and stored at −70° C. until analysis. Tissue NE and DA concentrations were assayed by HPLC using electrochemical detection.
Fifteen to sixteen week old male spontaneously hypertensive rats (SHRs) (Charles River Labs) were allowed food and water ad libitum. Animals were weighed and randomly assigned to one of the following treatment groups: 1) distilled water vehicle (dH2O), or nepicastat at 3, 10, 30, and 100 mg/kg, 2) Compound B at 30 mg/kg in distilled water, or 3) PEG 400:dH2O vehicle or SKF-102698 at 30 mg/kg. Each rat was dosed orally (p.o., using a gavage needle) three times 12 hours apart, beginning in the morning. At six hours after the third dose rats were anesthetized with halothane, decapitated, and the cortex, mesenteric artery, and left ventricle were rapidly harvested, weighed, placed in iced 0.4 M perchioric acid, frozen in liquid nitrogen, and stored at −70° C. Tissue dopamine and norepinephrine concentrations were assayed by high performance liquid chromatography and electrochemical detection.
Four series of statistical analyses were performed. The first series compared the rats treated with various doses of nepicastat, and Compound B at 30 mg/kg to the vehicle control animals. A nonparametric one-way analysis of variance (ANOVA) with factor Dose and blocking factor Day was performed for each tissue and strain separately. […] Pairwise analysis between treated and controls at each dose were carried out using Dunnett's test to control the experiment-wise error rate. The second statistical test compared SKF-102698 to the PEG-dH2O vehicle treated group using a nonparametric t-test. The third statistical test compared Compound B to nepicastat at doses of 30 mg/kg using a nonparametric t-test.

[1] = cerebral cortex, 30 and 100 mg/kg
[2] = left ventricle and mesenteric artery
[3] = left ventricle, 3, 10, 30 and 100 mg/kg

Fc1cc(F)cc(Cn2cc[nH]c2=S)c1 [SKF-102698, reference compound]
increase in DA/NE ratio (cerebral cortex): 2.7 fold
dopamine vs vehicle (cerebral cortex, 30 mg/kg x3): significantly greater (p<0.01) than vehicle
dopamine/norepinephrine ratio vs vehicle (cerebral cortex, 30 mg/kg x3): significantly (p<0.01) greater than vehicle
norepinephrine vs vehicle (cerebral cortex, 30 mg/kg x3): significantly lower than vehicle
increase in DA/NE ratio (left ventricle): 3.5 fold
dopamine vs vehicle (left ventricle, 30 mg/kg x3): significantly greater (p<0.01) than vehicle
dopamine/norepinephrine ratio vs vehicle (left ventricle, 30 mg/kg x3): significantly (p<0.05) greater than vehicle
norepinephrine vs vehicle (left ventricle, 30 mg/kg x3): not different from vehicle
increase in DA/NE ratio (mesenteric artery): 5.5 fold
dopamine vs vehicle (mesenteric artery, 30 mg/kg x3): significantly greater than vehicle
dopamine/norepinephrine ratio vs vehicle (mesenteric artery, 30 mg/kg x3): significantly greater than vehicle
norepinephrine vs vehicle (mesenteric artery, 30 mg/kg x3): significantly lower than vehicle

Cl.NCc1c[nH]c(=S)n1[C@H]1CCc2c(F)cc(F)cc2C1 [nepicastat, (S)-5-Aminomethyl-1-(5,7-difluoro-1,2,3,4-tetrahydronaphth-2-yl)-2,3-dihydro-2-thioxo-1H-imidazole hydrochloride]
nepicastat compared with the R-enantiomer (Compound B), catecholamine changes (30 mg/kg po x3, mesenteric artery and/or left ventricle, hydrochloride): significantly greater changes in catecholamine content; also recorded: significantly more potent then the R enantiomer; also recorded: significantly more effective (p<0.01) than Compound B
increase in DA/NE ratio (cerebral cortex): 1.5 fold
norepinephrine levels, nepicastat compared to Compound B (cerebral cortex, 30 mg/kg x3): significantly lower
nepicastat compared with SKF-102698, catecholamine changes (cerebral cortex, hydrochloride): significantly less effects than SKF-102698; also recorded: greater for SKF-102698 than for nepicastat; also recorded: less effective in the cerebral cortex
maximal increase in DA/NE ratio (cerebral cortex): 3.2 fold
decrease in noradrenaline (cerebral cortex): 42%
increase in dopamine (cerebral cortex): 86%
dopamine concentration vs vehicle [1]: significantly (p<0.05) greater
dopamine/norepinephrine ratio vs vehicle [1]: significantly (p<0.05) greater
norepinephrine concentration vs vehicle [1]: significantly (p<0.05) lower
dose for significant decrease in norepinephrine [2]: 10 mg/kg
dose for significant increase in dopamine [2]: 3.0 mg/kg
dose for significant increase in dopamine/norepinephrine ratio [2]: 3.0 mg/kg
nepicastat compared with SKF-102698, catecholamine changes (left ventricle and/or mesenteric artery, hydrochloride): significantly more potent than the DBH inhibitor SKF-102698; also recorded: greater for nepicastat than for SKF-102698; also recorded: more effective than SKF-102698
increase in DA/NE ratio (left ventricle): 7.5 fold
maximal increase in DA/NE ratio (left ventricle): 11 fold
decrease in noradrenaline (left ventricle): 35%
increase in dopamine (left ventricle): 800%
dopamine concentration vs vehicle [3]: significantly (p<0.05) greater than vehicle
dopamine/norepinephrine ratio vs vehicle [3]: significantly (p<0.05) greater than vehicle
norepinephrine concentration vs vehicle (left ventricle, 10, 30 and 100 mg/kg): significantly (p<0.05) lower than vehicle
doses at which catecholamine changes attained significance (p<0.05) (mesenteric artery and left ventricle): ≥ 3 mg/kg
increase in DA/NE ratio (mesenteric artery): 8.3 fold
maximal increase in DA/NE ratio (mesenteric artery): 14 fold
decrease in noradrenaline (mesenteric artery): 47%
increase in dopamine (mesenteric artery): 820%
dopamine concentration vs vehicle (mesenteric artery, 3, 10, 30 and 100 mg/kg): significantly (p<0.05) greater than vehicle
norepinephrine concentration vs vehicle (mesenteric artery, 10, 30 and 100 mg/kg): not significantly less (p>0.05)
dopamine/norepinephrine ratio vs vehicle (mesenteric artery, all doses): significantly (p<0.05) greater than vehicle
